Measurements published in publication PMC9416257, “Design, Synthesis and Preliminary Evaluation of the Cytotoxicity and Antibacterial Activity of Novel Triphenylphosphonium Derivatives of Betulin” (Molecules, 2022).
Where two headings read alike, the source gives them in different places.

Tests used:
[1] = system: S. aureus ATCC 25923; experiment: Antibacterial assay, optical density of culture in TSB; type: cell-based, Staphylococcus aureus; details: 37 °C, 18 h
Protocol: (§1) Investigations were carried out using different concentrations of solutions from 25 to 250 µM. A 25 µM concentration of the tested derivatives was not enough to inhibit the growth of […]. When the concentration of analogs 7d–7f and 9a–9c increased to 200 µM, the growth of S. aureus ATCC 25923 and S. epidermidis ATCC 12228 was inhibited. Furthermore, the optical density of all compounds remained unchanged after 18 h of bacteria culture. In the case of analogs 7a–7c, the optical density values were between 0.9 and 2.2 when they were cultured with S. aureus ATCC 25923. The bacterial growth was slower compared to the control sample (TSB-culture medium). […] In the case of analog 7c, the optical density increased up to […] after 18 h of the sample culture with both kinds of Gram-positive bacteria. In contrast, the reference sample’s (TSB) optical density increased to 7.5 for S. aureus ATCC 25923, and 4.9 for S. epidermidis ATCC 12228 after 18 h of bacteria culture. […] All of the analog values of the measured optical density were similar to that of the reference sample (5.0–5.1, Table 3).
(§2) Antibacterial analysis was performed using the S. aureus ATCC 25923, S. epidermidis ATCC 12228, and Escherichia coli ATCC 25922 bacteria strains. The test compounds were dissolved in DMSO to obtain a stock solution with a concentration of 5 mM (betulin) or 10 mM (other test compounds). The stock solution was diluted with water to the desired concentration (25–250 µM). Then, 1 mL of the investigated solutions was mixed with 1 mL of culture medium (TSB, Biomaxima, Lublin, Poland) in a sterile glass tube. The initial concentration of bacteria was around 5 × 10^6 CFU/mL. The concentration of bacteria was measured using an optical densitometer before and after 18 h of bacteria culture in glass tubes at 37 °C (incubator POL-EKO, Wodzislaw Slaski, Poland). The investigations were repeated for three independent samples. The control sample was the culture medium without any supplementation.

[2] = system: MCF-7 (human breast adenocarcinoma cell line); experiment: Cytotoxicity, CCK-8 cell viability assay; type: cell-based; details: read-out: Activity IC50, MCF-7
Protocol: (§3) The obtained new molecular hybrids of BN were screened in order to initially investigate their cytotoxicity as well as examine the relationships between the structure and biological effect. The common element of all of the tested compounds was the presence of a lipophilic moiety (CH2)nTPP^⊕ (n = 3, 4, 5). The research was conducted on two groups of compounds: 28-TPP^⊕ BN and 3,28-bisTPP^⊕ BN. Their cytotoxicity was investigated on two cancer cell lines: HCT 116 (colorectal carcinoma cell line) and MCF-7 (human breast adenocarcinoma cell line). The proliferation of tumor cells treated with the tested compounds (7 and 9) at 12.5–3.125 µM concentrations were determined after 24 h of incubation. Additionally, all compounds were tested against the NHDF cell line (Normal Human Dermal Fibroblast cells) to assess their safety. Half-maximal inhibitory concentrations (IC50) of triphenylphosphonium analogs of BN were determined using a CCK-8 assay and are summarized in Table 2.
(§4) The human colorectal carcinoma cell line (HCT 116) and the human breast adenocarcinoma cell line (MCF-7) cells were purchased from the American Type Culture Collection (ATCC, Manassas, VA, USA). The Normal Human Dermal Fibroblast (NHDF) cells were purchased from Lonza (Dermal Fibroblasts, Lonza, Poland). All cells were cultured under standard conditions at 37 °C in a humidified atmosphere at 5% CO2 in DMEM/F12 medium (PAA) supplemented with 10% of heat-inactivated fetal bovine serum (FBS, EURx, Gdansk, Poland) and antibiotics (penicillin/streptomycin).
Cells were seeded at 7500 (HCT 116) or 10,000 (MCF-7, NHDF) cells/well in 96-well plates. […] The test compounds were dissolved in DMSO to obtain a stock solution with a concentration of 5 mM (betulin) or 10 mM (other test compounds). The stock solution was diluted with the fresh culture medium to the desired concentration. Controls were cells grown in medium without the addition of test compounds. After 24 h of incubation with the test compounds, 10 µL of CCK-8 reagent (Bimake, Houston, TX, USA) was added to each well. After 2 h, the absorbance of the samples was measured at a wavelength of 450 nm using a microplate reader (Epoch, BioTek Instruments, Winooski, VT, USA). The determinations were conducted in at least three biological replications (each biological replication contained 3 technical replications). The cell viability rate was calculated using CalcuSyn software (version 2.0, Biosoft, Cambridge, UK).

[3] = system: S. epidermidis ATCC 12228; experiment: Antibacterial assay, optical density of culture in TSB; type: cell-based, Staphylococcus epidermidis; details: 37 °C, 18 h
Protocol: as §1, §2

[4] = system: HCT 116 (colorectal carcinoma cell line); experiment: Cytotoxicity, CCK-8 cell viability assay; type: cell-based; details: Homo sapiens, read-out: Activity IC50, HCT 116
Protocol: as §3, §4
(§5) Cells were seeded at 7500 (HCT 116) or 10,000 (MCF-7, NHDF) cells/well in 96-well plates. After 24 h, the culture medium was removed and 100 µL of fresh medium containing the test compounds at 0–12.5 µM concentrations was added to the culture wells. The test compounds were dissolved in DMSO to obtain a stock solution with a concentration of 5 mM (betulin) or 10 mM (other test compounds). The stock solution was diluted with the fresh culture medium to the desired concentration. Controls were cells grown in medium without the addition of test compounds. After 24 h of incubation with the test compounds, 10 µL of CCK-8 reagent (Bimake, Houston, TX, USA) was added to each well. After 2 h, the absorbance of the samples was measured at a wavelength of 450 nm using a microplate reader (Epoch, BioTek Instruments, Winooski, VT, USA). The determinations were conducted in at least three biological replications (each biological replication contained 3 technical replications). The cell viability rate was calculated using CalcuSyn software (version 2.0, Biosoft, Cambridge, UK).

[5] = system: NHDF (Normal Human Dermal Fibroblast cells); experiment: Cytotoxicity, CCK-8 cell viability assay (safety on normal cells); type: cell-based; details: read-out: Activity IC50, NHDF
Protocol: as §3, §4, §5

[6] = system: Escherichia coli ATCC 25922; experiment: Antibacterial assay, optical density of culture in TSB; type: cell-based; details: 37 °C, 18 h; further: key: 0: no difference between samples after 18 h of bacteria culture (bacteria grow was inhibited); neg: negative results (analog BN did not inhibit bacteria growing)
Protocol: as §1, §2

| Compound | Difference between optical density before and after culture, S. aureus ATCC 25923 ([1]; 200 μM) | Difference between optical density before and after culture, S. aureus ATCC 25923 ([1]; 250 μM) | IC50 ([2]; MCF7, 24 h) [µM] | Difference between optical density before and after culture, S. epidermidis ATCC 12228 ([3]; 200 μM) | Difference between optical density before and after culture, S. epidermidis ATCC 12228 ([3]; 250 μM) | IC50 ([4]; HCT-116, 24 h) [µM] | IC50 ([5]; 24 h) [µM] | Difference between optical density before and after culture, Escherichia coli ATCC 25922 ([6]; 200 μM) | Difference between optical density before and after culture, Escherichia coli ATCC 25922 ([6]; 250 μM) | IC50 ([2]; MCF7, CCK-8 assay, incubation time 24 h, mean ± SD (n = 3)) [µM] | IC50 ([4]; HCT-116, CCK-8 assay, incubation time 24 h, mean ± SD (n = 3)) [µM] | IC50 ([5]; CCK-8 assay, incubation time 24 h, mean ± SD (n = 3)) [µM] |
| --- | --- | --- | --- | --- | --- | --- | --- | --- | --- | --- | --- | --- |
| C=C(C)[C@@H]1CC[C@]2(COC(=O)CCC(=O)OCCCC[P+](c3ccccc3)(c3ccccc3)c3ccccc3)CC[C@]3(C)C(CCC4[C@@]5(C)CC[C@H](OC(=O)CCC(=O)OCCCC[P+](c6ccccc6)(c6ccccc6)c6ccccc6)C(C)(C)C5CC[C@]43C)C12 (stereo partly drawn) [9b, 3,28-O,O’-Bis(3’-(4"-triphenylphosphoniobutyloxycarbonyl)propanoyl)betulin bromide] | 0 | 0 | 23.6 ± 0.33 | 0 | 0 | 7.97 ± 0.51 | 8.02 ± 0.35 | neg | neg | – | – | – |
| C=C(C)[C@@H]1CC[C@]2(COC(=O)CCC(=O)OCCCCC[P+](c3ccccc3)(c3ccccc3)c3ccccc3)CC[C@]3(C)C(CCC4[C@@]5(C)CC[C@H](OC(=O)CCC(=O)OCCCCC[P+](c6ccccc6)(c6ccccc6)c6ccccc6)C(C)(C)C5CC[C@]43C)C12 (stereo partly drawn) [9c, 3,28-O,O′-Bis(3’-(5"-triphenylphosphoniopentyloxycarbonyl)propanoyl)betulin bromide] | 0 | 0 | 53.3 ± 5.41 | 0 | 0 | 19 ± 0.51 | 10.6 ± 0.34 | neg | neg | – | – | – |
| C=C(C)[C@@H]1CC[C@]2(CO)CC[C@]3(C)[C@H](CC[C@@H]4[C@@]5(C)CC[C@H](O)C(C)(C)[C@@H]5CC[C@]43C)[C@@H]12 [BN, 3-lup-20(29)-ene-3,28-diol, reference compound] | 5.1 McFarland’s scale (CFU/mL) | 5.6 McFarland’s scale (CFU/mL) | – | neg | 4.7 McFarland’s scale (CFU/mL) | – | – | neg | neg | > 12.5 | > 12.5 | > 12.5 |
